# Experiments:
# [1] = test system: oleic acid-induced HepG2 cell line model; assay: Bodipy staining of lipid accumulation in oleic acid-induced HepG2 cells; assay type: cell-based; settings: Homo sapiens, 24 h, OA-induced HepG2, read-out: Inhibitory Rate of lipid accumulation; for inhibition at 100 µg/mL: 100 μg/mL
# Experimental: After treatment with compounds for 24 h in a 96-well plate, the supernatant of the HepG2 cells was discarded and cells were washed twice with PBS, then the cells were fixed with 4% paraformaldehyde at room temperature for 20 min. After removing the fixative reagent, the cells were washed twice with PBS. HepG2 cells were stained with 100 μL Bodipy (2 μg/mL, Thermo Fisher Scientific (Waltham, MA, USA)) in the dark at 25 °C for 30 min [30]. The fluorescence was measured using a fluorescence plate reader (Ex = 500 nm, Em = 550 nm, POLARstar, BMG Labtech (Offenburg, Germany)). The inhibition rate was calculated by comparison with the control group which was just treated with DMSO.
# [2] = test system: oleic acid-induced HepG2 cell line model; assay: Oil Red O staining of lipid accumulation in oleic acid-induced HepG2 cells; assay type: cell-based; settings: Homo sapiens; Oil Red O assay, OA-induced HepG2, 24 h, area of lipid droplets; read-out: IC50 against lipid accumulation
# Experimental: HepG2 cells were treated with different concentrations of compounds for 24 h, then were washed twice with PBS and fixed with 4% paraformaldehyde for 15–20 min. The cells were washed with PBS and stained with Oil Red O solution (50 µL per well, Sigma-Aldrich) at 25 °C for 1 h. After washed with PBS for 3–5 times, the lipid droplets and cell morphology were observed by a light microscope and photographed. The area of lipid droplets was statistically compared for IC50 calculation with the control group which was treated with DMSO using Image J software.
# [3] = CCK-8 cell viability assay; settings: human, HepG2 cells
# Experimental: Human hepatoma HepG2 cells were obtained from the Beijing Union Medical Cell Resource Center (Basic Medical Cell Center, Institute of Basic Medical Sciences, Chinese Academy of Medical Sciences). The cells were cultured in DMEM containing 10% FBS and 1% penicillin–streptomycin and incubated with 5% CO2 at 37 °C. Cells were allowed to grow to approximately 80% confluency and were sub-cultured at a ratio of 1:3 [27]. In this study, to simulate the process of nonalcoholic fatty liver disease in vitro, 0.2 mM oleic acid (OA) was added to the culture medium for 48 h to induce human HepG2 to establish a nonalcoholic fatty liver cell model [28].
# HepG2 cells were seeded into 96-well plates after achieving logarithmic growth and cultured overnight at 37 °C with 5% CO2. After treatment with different concentrations of compounds (dissolved in DMSO) for 24 h, 10 μL CCK-8 solution (Cell Counting Kit-8, Sigma-Aldrich (St. Louis, MO, USA)) was added to each well and the plate was incubated for 2 h in the incubator. Then, the absorbance at 450 nm was measured using a microplate reader. The normal control group was treated with the same amount of DMSO as the experiment group [29]. Cell viability was calculated by: cell viability (%) = (ODdrug/ODcontrol) × 100%.
IC50 [2],SMILES,inhibition at 100 µg/mL [1],"viability at 24 h, 100 μg/mL [3]",inhibition at 25 µg/mL ([1]; 25 μg/mL),"viability at 24 h, 25 μg/mL [3]"
127 nM,"C=CC(C)(C)c1[nH]c2c(CC3OC3(C)C)cccc2c1C=C1NC(=O)C(C)NC1=O (centres unmarked) [Compound 1, variecolorin P]",37.3%,110%,–,–
–,"C=CC(C)(C)c1[nH]c2cc(CC=C(C)C)ccc2c1/C=C1\NC(=O)[C@H](C)NC1=O [Compound 3, neoechinulin D]",-67.3%,11.2%,–,–
–,"C=CC(C)(C)c1[nH]c2c(CC=C(C)C)cccc2c1/C=C1\NC(=O)[C@H](C)NC1=O [Compound 4, variecolorin G]",-15.3%,–,–,–
–,"C=CC(C)(C)c1[nH]c2c(CC=C(C)C)cc(CC=C(C)C)cc2c1C[C@@H]1NC(=O)[C@H](C)NC1=O [Compound 5, echinulin]",–,–,5.46%,94.5%
